This assay concerns MIA PaCa-2 cells. The assay can be described thus: MIA PaCa2 cell-based assay (1,536-well high-content imaging ALDEFLUOR assay). More on the design: species or system human. The conditions noted are these: Homo sapiens, 0.5 h, ALDEFLUOR BAAA substrate 500 nM, 30 minutes. The method, boiled down:
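MIA PaCa-2 cells (1,000/well), plated overnight, given BAAA substrate (500 nM) plus Hoechst 33342 (0.5 nM), then compound (16-point, 1.4 nM–47.8 μM final; 0.5% DMSO). After 30 min at 37° C, ALDH activity imaged by high-content microscopy as BAA-retaining (FITC) cells versus Hoechst-stained nuclei.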

The structures appear in SMILES notation. Where a name gives a salt, the structure may show the parent alone.

A word on the IC50: it is the concentration needed to halve the response being measured. A high value points to weaker potency.

For the compound `O=C(c1cnc2ccc(F)cc2c1N1CCC2(CCCO2)CC1)N1CCN(C(=O)C2CC2)CC1` [Example 66, (4-(cyclopropanecarbonyl)piperazin-1-yl)(6-fluoro-4-(1-oxa-8-azaspiro[4.5]decan-8-yl)quinolin-3-yl)methanone], the IC50 lay within 1000 to 10000 nM.

In turn, `CCC(=O)N1CCN(C(=O)c2cnc3ccc(F)cc3c2N2CCC(C)(C#N)CC2)CC1` [Example 91, 1-(6-fluoro-3-(4-propionylpiperazine-1-carbonyl)quinolin-4-yl)-4-methylpiperidine-4-carbonitrile] returned an IC50 of 1000 to 10000 nM. The compound `CS(=O)(=O)N1CCN(C(=O)c2cnc3ccc(F)cc3c2N2CCC(C#N)(c3ccc(F)cc3)CC2)CC1` [Example 279, 1-(6-fluoro-3-(4-(methylsulfonyl)piperazine-1-carbonyl)quinolin-4-yl)-4-(4-fluorophenyl)piperidine-4-carbonitrile] registered an IC50 below 500 nM. The compound `CCC1(C#N)CCN(c2c(C(=O)N3CCN(S(C)(=O)=O)CC3)cnc3ccc(F)cc23)CC1` [Example 197, 4-ethyl-1-(6-fluoro-3-(4-(methylsulfonyl)piperazine-1-carbonyl)quinolin-4-yl)piperidine-4-carbonitrile] returned an IC50 below 500 nM. In turn, `CS(=O)(=O)N1CCN(C(=O)c2cnc3ccc(F)cc3c2N2CCC3(CC2)Cc2ccccc2C3=O)CC1` [Example 201, 1′-(6-fluoro-3-(4-(methylsulfonyl)piperazine-1-carbonyl)quinolin-4-yl)spiro[indene-2,4′-piperidin]-1(3H)-one] showed an IC50 of 1000 to 10000 nM. `CC(C)(C)c1ccc(-c2c(C(=O)N3CCN(S(C)(=O)=O)CC3)cnc3ccc(F)cc23)cc1` [Cpd. 306, (4-(4-(tert-butyl)phenyl)-6-fluoroquinolin-3-yl)(4-(methylsulfonyl)piperazin-1-yl)methanone]: the IC50 was below 500 nM. The compound `CC(C)(C#N)c1ccc(-c2c(C(=O)N3CCN(S(C)(=O)=O)CC3)cnc3ccc(F)cc23)cc1` [Example 211, 2-(4-(6-fluoro-3-(4-(methylsulfonyl)piperazine-1-carbonyl)quinolin-4-yl)phenyl)-2-methylpropanenitrile] came in with an IC50 below 500 nM. As to `CS(=O)(=O)N1CCN(C(=O)c2cnc3c(F)cc(F)cc3c2-c2ccc(C3(C#N)CC3)cc2)CC1` [Cpd. 324, 1-(4-(6,8-difluoro-3-(4-(methylsulfonyl)piperazine-1-carbonyl)quinolin-4-yl)phenyl)cyclopropane-1-carbonitrile], the IC50 was below 500 nM. Regarding `C[C@H]1CN(C(=O)c2cnc3ccc(F)cc3c2N2CCC(C)(C#N)CC2)CCN1S(C)(=O)=O` [Example 226, (S)-1-(6-fluoro-3-(3-methyl-4-(methylsulfonyl)piperazine-1-carbonyl)quinolin-4-yl)-4-methylpiperidine-4-carbonitrile], the IC50 lay in the range of 1000 to 10000 nM. Take `CS(=O)(=O)N1CCN(C(=O)c2cnc3ccc(F)cc3c2N2CCC3(CC2)CC(=O)c2ccccc23)CC1` [Example 199, 1′-(6-fluoro-3-(4-(methylsulfonyl)piperazine-1-carbonyl)quinolin-4-yl)spiro[indene-1,4′-piperidin]-3(2H)-one]: the IC50 fell in the range of 1000 to 10000 nM. With `CC1(C#N)CCN(c2c(C(=O)N3CCC(C(=O)C4CC4)CC3)cnc3ccc(F)cc23)CC1` [Example 194, 1-(3-(4-(cyclopropanecarbonyl)piperidine-1-carbonyl)-6-fluoroquinolin-4-yl)-4-methylpiperidine-4-carbonitrile], the half-maximal inhibitory concentration (IC50) lay within 1000 to 10000 nM.

For the compound `C[C@@H]1CN(C(=O)c2cnc3ccc(F)cc3c2N2CCC(C)(C#N)CC2)CCN1S(C)(=O)=O` [Example 223, (R)-1-(6-fluoro-3-(3-methyl-4-(methylsulfonyl)piperazine-1-carbonyl)quinolin-4-yl)-4-methylpiperidine-4-carbonitrile], the IC50 lay in the range of 1000 to 10000 nM. Regarding `CS(=O)(=O)N1CCN(C(=O)c2cnc3ccc(F)cc3c2N2CCC(C#N)(c3ccc(Cl)cc3)CC2)CC1` [Example 275, 4-(4-chlorophenyl)-1-(6-fluoro-3-(4-(methylsulfonyl)piperazine-1-carbonyl)quinolin-4-yl)piperidine-4-carbonitrile], the IC50 is below 500 nM.

`CS(=O)(=O)N1CCN(C(=O)c2cnc3ccc(Cl)cc3c2N2CCC(C#N)(c3ccccc3)CC2)CC1` [Cpd. 316, 1-(6-chloro-3-(4-(methylsulfonyl)piperazine-1-carbonyl)quinolin-4-yl)-4-phenylpiperidine-4-carbonitrile] registered an IC50 below 500 nM. In turn, `CC1(C)CC=C(c2c(C(=O)N3CCN(S(C)(=O)=O)CC3)cnc3ccc(F)cc23)CC1` [Example 301, (4-(4,4-dimethylcyclohex-1-en-1-yl)-6-fluoroquinolin-3-yl)(4-(methylsulfonyl)piperazin-1-yl)methanone] displayed an IC50 below 500 nM. `C=CS(=O)(=O)N1CCN(c2c(C(=O)N3CCN(S(C)(=O)=O)CC3)cnc3ccc(F)cc23)CC1` [Example 221, (6-fluoro-4-(4-(vinylsulfonyl)piperazin-1-yl)quinolin-3-yl)(4-(methylsulfonyl)piperazin-1-yl)methanone] displayed an IC50 of 1000 to 10000 nM. Compound `N#CC1(c2ccccc2)CCN(c2c(C(=O)N3CCN(C(=O)C4CC4)CC3)cnc3ccc(F)cc23)CC1` [Example 208, 1-(3-(4-(cyclopropanecarbonyl)piperazine-1-carbonyl)-6-fluoroquinolin-4-yl)-4-phenylpiperidine-4-carbonitrile] came in with an IC50 below 500 nM.

`N#CC1(c2ccc(-c3c(C(=O)N4CCN(C(=O)C5CC5)CC4)cnc4ccc(F)cc34)cc2)CC1` [Example 262, 1-(4-(3-(4-(cyclopropanecarbonyl)piperazine-1-carbonyl)-6-fluoroquinolin-4-yl)phenyl)cyclopropanecarbonitrile] had an IC50 below 500 nM. Under `CC1(C#N)CCN(c2c(C(=O)N3CCN(C(=O)C4CC4)CC3)cnc3sccc23)CC1` [Example 219, 1-(5-(4-(cyclopropanecarbonyl)piperazine-1-carbonyl)thieno[2,3-b]pyridin-4-yl)-4-methylpiperidine-4-carbonitrile] stands 1000 to 10000 nM; under `N#CC1(c2ccccc2)CCN(c2c(C(=O)N3CCN(C(=O)C4CC4)CC3)cnc3ccsc23)CC1` [Example 282, 1-(6-(4-(cyclopropanecarbonyl)piperazine-1-carbonyl)thieno[3,2-b]pyridin-7-yl)-4-phenylpiperidine-4-carbonitrile], below 500 nM. `N#CC1CCN(c2c(C(=O)N3CCN(C(=O)C4CC4)CC3)cnc3ccc(F)cc23)CC1` [Cpd. 302, 1-(3-(4-(cyclopropanecarbonyl)piperazine-1-carbonyl)-6-fluoroquinolin-4-yl)piperidine-4-carbonitrile]: the IC50 is above 10000 nM. Consider `CC1(C#N)CCN(c2c(C(=O)N3CCN(S(C)(=O)=O)CC3)cnc3[nH]ccc23)CC1` [Example 236, 4-methyl-1-(5-(4-(methylsulfonyl)piperazine-1-carbonyl)-1H-pyrrolo[2,3-b]pyridin-4-yl)piperidine-4-carbonitrile], for which the IC50 lay in the range of 1000 to 10000 nM. Under `COc1ccc2ncc(C(=O)N3CCN(C(=O)C4CC4)CC3)c(N3CCC4(CC3)OCCO4)c2c1` [Example 1, (4-(cyclopropanecarbonyl)piperazin-1-yl)(6-methoxy-4-(1,4-dioxa-8-azaspiro[4.5]decan-8-yl)quinolin-3-yl)methanone, TFA] stands 1000 to 10000 nM; under `COc1cc2ncc(C(=O)N3CCN(C(=O)C4CC4)CC3)c(N3CCC4(CC3)OCCO4)c2cc1OC` [Example 48, (4-(cyclopropanecarbonyl)piperazin-1-yl)(6,7-dimethoxy-4-(1,4-dioxa-8-azaspiro[4.5]decan-8-yl)quinolin-3-yl)methanone], 1000 to 10000 nM; under `COc1ccc2c(-c3ccc(C4(C#N)CC4)cc3)c(C(=O)N3CCN(S(C)(=O)=O)CC3)cnc2c1` [Cpd. 322, 1-(4-(7-methoxy-3-(4-(methylsulfonyl)piperazine-1-carbonyl)quinolin-4-yl)phenyl)cyclopropane-1-carbonitrile], below 500 nM. The same measure for `CN(C)S(=O)(=O)N1CCN(C(=O)c2cnc3ccc(F)cc3c2N2CCC(C#N)(c3ccccc3)CC2)CC1` [Example 270, 4-(4-(4-cyano-4-phenylpiperidin-1-yl)-6-fluoroquinoline-3-carbonyl)-N,N-dimethylpiperazine-1-sulfonamide]: below 500 nM; for `O=C(c1cnc2ccc(F)cc2c1N1CCC(Cc2ccccc2)CC1)N1CCN(C(=O)C2CC2)CC1` [Example 200, (4-(4-benzylpiperidin-1-yl)-6-fluoroquinolin-3-yl)(4-(cyclopropanecarbonyl)piperazin-1-yl)methanone]: above 10000 nM. Under `CS(=O)(=O)N1CCN(C(=O)c2cnc3ccc(F)cc3c2N2CCC(C#N)(Cc3ccccc3)CC2)CC1` [Example 245, 4-benzyl-1-(6-fluoro-3-(4-(methylsulfonyl)piperazine-1-carbonyl)quinolin-4-yl)piperidine-4-carbonitrile] stands 1000 to 10000 nM; under `CS(=O)(=O)N1CCN(C(=O)c2cnc3ccc(F)cc3c2N2CCC(O)(c3ccccc3)CC2)CC1` [Example 292, (6-fluoro-4-(4-hydroxy-4-phenylpiperidin-1-yl)quinolin-3-yl)(4-(methylsulfonyl)piperazin-1-yl)methanone], 1000 to 10000 nM; under `O=C(c1cnc2c(F)cc(F)cc2c1N1CCC2(CC1)OCCO2)N1CCN(C(=O)C2CC2)CC1` [Example 78, (4-(cyclopropanecarbonyl)piperazin-1-yl)(6,8-difluoro-4-(1,4-dioxa-8-azaspiro[4.5]decan-8-yl)quinolin-3-yl)methanone], 1000 to 10000 nM. Compound `CS(=O)(=O)N1CCN(C(=O)c2cnc3ccc(F)cc3c2N2CCC(CO)(c3ccccc3)CC2)CC1` [Example 256, (6-fluoro-4-(4-(hydroxymethyl)-4-phenylpiperidin-1-yl)quinolin-3-yl)(4-(methylsulfonyl)piperazin-1-yl)methanone] gave a concentration for half-maximal inhibition (IC50) of 1000 to 10000 nM.
